From US11208403B2, “Pyridone derivatives having tetrahydropyranylmethyl groups” (DAIICHI SANKYO COMPANY, LIMITED, priority 2014, dated 2021)
pIC50: −log10 of the molar value. Structures can show the parent of a compound that is named as a salt. Where two headings read alike, the source gives them in different places. Each block holds one compound with its values, some of them ahead of it.

Legend:
NIH-3T3-Axl #7 = assay: Antitumor test, NIH-3T3-Axl #7 tumors in NOG mice (Test Example 5); assay type: in vivo, mouse; conditions: NIH-3T3-Axl #7 in female NOG mice, 5 continuous doses
Excerpt: (Test Example 5: Antitumor Test)
NIH-3T3-Axl #7 (cells prepared by the transfection of NIH3T3 cells with pLXSN retrovirus having an insert of full-length Axl cDNA) was block-transplanted into female NOG mice.

HCC827 lung cancer cells [1] = assay: In vivo effect of combined use with erlotinib-2, erlotinib-resistant HCC827 tumors (Test Example 8); set-up: species or system mouse
HCC827 lung cancer cells [2] = assay: In vivo effect of combined use with erlotinib, HCC827 subcutaneous tumors (Test Example 6); conditions: HCC827 in nude mice, 50 mg/kg bid in combination with 25 mg/kg erlotinib qd
[3] = target: T1, human MER (intracellular domain, amino acids 528-999, GST fusion) (Homo sapiens (Human), UniProt Q12866); assay: biochemical
[4] = target: T1, human MER (intracellular domain, amino acids 528-999, GST fusion); conditions: read-out: Mer kinase IC50; cell-free, ATP concentration of 1 mM
[5] = Ophthalmic histopathological examination after long-term administration (Test Example 4); assay type: in vivo, mouse; conditions: female NOG mice (n=8), 100 or 200 mg/kg
Excerpt: Preparation of dosing Solution:
4. Administration Method:
Four continuous doses, 1 drug holiday, 5 continuous doses, 2 drug holidays, 5 continuous doses, 2 drug holidays, 5 continuous doses, 2 drug holidays, and 4 continuous doses.
5. Pathological Examination
On the day following the termination date of the administration period, the mice were euthanized by blood letting under isoflurane anesthesia. Then, their eyeballs were collected, fixed in Davidson's solutions, then embedded in paraffin, and stained with hematoxylin eosin to prepare preparations, which were then histopathologically examined.

T1 sequence (Q12866 528-999): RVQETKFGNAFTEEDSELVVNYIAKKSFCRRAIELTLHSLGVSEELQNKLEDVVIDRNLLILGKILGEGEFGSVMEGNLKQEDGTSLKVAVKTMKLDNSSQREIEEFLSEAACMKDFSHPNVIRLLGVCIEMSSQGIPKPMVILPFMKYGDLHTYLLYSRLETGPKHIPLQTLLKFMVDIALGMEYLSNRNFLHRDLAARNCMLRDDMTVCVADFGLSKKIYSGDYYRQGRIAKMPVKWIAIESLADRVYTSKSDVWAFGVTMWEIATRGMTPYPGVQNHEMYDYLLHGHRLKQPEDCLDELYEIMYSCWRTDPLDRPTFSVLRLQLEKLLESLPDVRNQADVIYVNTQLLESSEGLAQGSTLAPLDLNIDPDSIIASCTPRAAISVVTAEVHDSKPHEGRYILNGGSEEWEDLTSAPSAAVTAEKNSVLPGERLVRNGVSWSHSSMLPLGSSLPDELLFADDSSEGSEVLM

Structure (SMILES): COc1ccc(-c2cnc(N)c(-c3ccc(NC(=O)c4cn(CC(F)(F)F)cc(-c5ccc(F)cc5)c4=O)cc3)c2)cc1OC [Compound A, reference compound]
- antitumor effect (NIH-3T3-Axl #7; 4.2 mg/kg oral bid): distinct tumor regression effect
- antitumor effect (NIH-3T3-Axl #7; 25 mg/kg oral bid): distinct tumor regression effect

Structure (SMILES): COc1cc(-c2cnc(N)c(-c3ccc(NC(=O)c4cn(CC5CCOCC5)cc(-c5ccc(C)cn5)c4=O)cc3F)c2)ccc1OC[C@H]1COCCO1 [Compound B sulfate hydrate]
- growth inhibition of erlotinib-resistant tumor (HCC827 lung cancer cells [1]; group 2: 50 mg/kg bid + 25 mg/kg erlotinib qd): distinct growth inhibitory effect of erlotinib was confirmed
- estimated tumor volume of erlotinib-resistant tumor (HCC827 lung cancer cells [1]; group 2: 50 mg/kg bid + 25 mg/kg erlotinib qd, 116 to 140 days after transplantation): maintained even at 140 days after transplantation
- growth inhibition of erlotinib-resistant tumor (HCC827 lung cancer cells [1]; group 3: 25 mg/kg bid + 25 mg/kg erlotinib qd): distinct growth inhibitory effect of erlotinib was confirmed
- body weight change (HCC827 lung cancer cells [2]): No significant weight loss
- tumor size relative to start of administration (estimated tumor volume) (HCC827 lung cancer cells [2]): did not reach that at the start of administration even at Day 107

- pIC50 [3]: 6.99
Structure (SMILES): COc1ccc(-c2cnc(N)c(-c3ccc(NC(=O)c4cn(CC5CCOCC5)cc(-c5ccc(C)cc5)c4=O)cc3)c2)cc1OC [Example 2]

- pIC50 [4]: < 5.40
Structure (SMILES): COc1ccc(-c2cnc(N)c(-c3ccc(NC(=O)c4cn(CC5CCOCC5)cc(-c5ccc(OC(F)(F)F)cc5)c4=O)cc3)c2)cc1OC [Example 7]

- pIC50 [4]: < 5.40
Structure (SMILES): Cc1ccc(-c2cn(CC3CCOCC3)cc(C(=O)Nc3ccc(-c4cc(-c5cc(C)nc(C)c5)cnc4N)nc3)c2=O)cc1 [Example 89]

- pIC50 [4]: < 5.40
Structure (SMILES): COc1cc(-c2cnc(N)c(-c3ccc(NC(=O)c4cn(CC5CCOCC5)cc(-c5ccc(C)cc5)c4=O)cn3)c2)c(OC)nn1 [Example 96]

- pIC50 [4]: < 5.40
Structure (SMILES): Cc1ccc(-c2cn(CC3CCOCC3)cc(C(=O)Nc3ccc(-c4cc(-c5cnn(CC6CCOCC6)c5)cnc4N)nn3)c2=O)cc1 [Example 102]

- pIC50 [4]: < 5.40
Structure (SMILES): COc1ccc(-c2cnc(N)c(-c3ccc(NC(=O)c4cn(CC5CCOCC5)cc(-c5ccc(C)cn5)c4=O)nn3)c2)cc1OC [Example 103]

- pIC50 [4]: < 5.40
Structure (SMILES): COc1cc(-c2cnc(N)c(-c3ccc(NC(=O)c4cn(CC5CCOCC5)cc(-c5ccc(C)cn5)c4=O)nn3)c2)ccc1OC[C@H]1COCCO1 [Example 105]

- pIC50 [4]: < 5.40
Structure (SMILES): COc1cc(-c2cnc(N)c(-c3ccc(NC(=O)c4cn(CC5CCOCC5)cc(-c5ccc(C)s5)c4=O)nn3)c2)ccc1OC[C@H]1COCCO1 [Example 106]

- pIC50 [4]: < 5.40
Structure (SMILES): Cc1ccc(-c2cn(CC3CCOCC3)cc(C(=O)Nc3ccc(-c4cc(-c5cnn(C[C@H]6COCCO6)c5)cnc4N)nn3)c2=O)cc1 [Example 108]

- pIC50 [4]: < 5.40
Structure (SMILES): Cc1ccc(-c2cn(CC3CCOCC3)cc(C(=O)Nc3ccc(-c4cc(-c5cnn(C6CCOCC6)c5)cnc4N)nn3)c2=O)cc1 [Example 109]

- pIC50 [4]: < 5.40
Structure (SMILES): COc1cc(-c2cnc(N)c(-c3ccc(NC(=O)c4cn(CC5CCOCC5)cc(-c5ccc(C)cc5)c4=O)nn3)c2)ccc1OCCN1CCOCC1 [Example 110, N-[6-(2-Amino-5-{3-methoxy-4-[2-(morpholin-4-yl)ethoxy]phenyl}pyridin-3-yl)pyridazin-3-yl]-5-(4-methylphenyl)-4-oxo-1-(tetrahydro-2H-pyran-4-ylmethyl)-1,4-dihydropyridine-3-carboxamide]

- pIC50 [3]: < 5.40
Structure (SMILES): COc1ccc(-c2cnc(N)c(-c3cnc(NC(=O)c4cn(CC5CCOCC5)cc(-c5ccc(C)cc5)c4=O)cn3)c2)cc1OC [Example 112, N-{5-[2-Amino-5-(3,4-dimethoxyphenyl)pyridin-3-yl]pyrazin-2-yl}-5-(4-methylphenyl)-4-oxo-1-(tetrahydro-2H-pyran-4-ylmethyl)-1,4-dihydropyridine-3-carboxamide]

- histological change in the retina [5]: No histological change in the retinal
Structure (SMILES): COc1cc(-c2cnc(N)c(-c3ccc(NC(=O)c4cn(CC5CCOCC5)cc(-c5ccc(C)cn5)c4=O)cc3F)c2)ccc1OC[C@H]1COCCO1 [Example 124]

- histological change in the retina [5]: No histological change in the retinal
Structure (SMILES): COc1cc(-c2cnc(N)c(-c3ccc(NC(=O)c4cn(CC5CCOCC5)cc(-c5ccc(C)cc5)c4=O)cc3)c2)ccc1OC[C@H]1COCCO1.CS(=O)(=O)O [Example 128]
- antitumor effect (NIH-3T3-Axl #7; 3.1 mg/kg oral bid): almost completely inhibited tumor growth
- antitumor effect (NIH-3T3-Axl #7; 12.5 mg/kg oral bid): distinct tumor regression effect
- antitumor effect (NIH-3T3-Axl #7; 50 mg/kg oral bid): distinct tumor regression effect

- histological change in the retina [5]: No histological change in the retinal
Structure (SMILES): COc1cc(-c2cnc(N)c(-c3ccc(NC(=O)c4cn(CC5(C#N)CCOCC5)cc(-c5ccc(F)cc5)c4=O)cc3)c2)ccc1OC[C@H]1COCCO1.CS(=O)(=O)O [Example 129]
